# Like-named read-outs stand apart in the source and are kept apart here.
# Legend:
# [1] = amide bond, 18-membered ring, HATU/HOAt/2,6-lutidine, DCM
# [2] = target: human PCSK9 (Homo sapiens, UniProt Q8NBP7); assay: PCSK9 ligand binding TR-FRET assay (interference with binding of human PCSK9 to human LDLR); details: for Max % inhibition: PCSK9 FRET assay, efficacy (Amax), 100% = 1 uM unlabeled human PCSK9, 0% = DMSO; for IC50: TR-FRET, human PCSK9 Alexa Fluor 647 / human LDLR extracellular domain-Europium Kryptate, read-out: PCSK9 FRET Assay IC50
# human PCSK9, sequence (Q8NBP7 153-692): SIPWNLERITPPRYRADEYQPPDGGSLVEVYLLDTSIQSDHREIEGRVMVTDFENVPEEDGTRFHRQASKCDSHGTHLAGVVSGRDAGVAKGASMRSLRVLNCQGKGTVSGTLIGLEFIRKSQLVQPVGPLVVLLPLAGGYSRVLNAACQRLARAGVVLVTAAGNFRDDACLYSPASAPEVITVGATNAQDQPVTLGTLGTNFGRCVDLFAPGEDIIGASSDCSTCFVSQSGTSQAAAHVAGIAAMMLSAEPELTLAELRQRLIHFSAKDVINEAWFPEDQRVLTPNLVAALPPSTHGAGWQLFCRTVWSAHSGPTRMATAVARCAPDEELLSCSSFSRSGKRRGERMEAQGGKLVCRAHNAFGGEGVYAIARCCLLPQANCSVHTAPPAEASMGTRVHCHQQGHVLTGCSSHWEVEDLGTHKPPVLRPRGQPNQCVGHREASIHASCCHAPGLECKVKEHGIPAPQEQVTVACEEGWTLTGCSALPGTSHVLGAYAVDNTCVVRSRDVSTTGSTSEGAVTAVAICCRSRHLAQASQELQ
# human PCSK9, sequence (Q8NBP7 31-152 partner limits assumed): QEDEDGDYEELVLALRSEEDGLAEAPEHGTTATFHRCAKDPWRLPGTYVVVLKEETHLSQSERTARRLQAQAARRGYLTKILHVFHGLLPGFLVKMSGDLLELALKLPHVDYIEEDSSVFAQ
# Outline: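 Threefold compound dilutions were pre-incubated 30 min with PCSK9, after which 4 nM Europium Kryptate-tagged human LDLR ectodomain was added for a further 2 h.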
Compound,Max % inhibition [2] [%],IC50 [2] [nM],further results
COC[C@@H]1NC(=O)[C@H](CCNC(=O)OC(C)(C)C)N(Cc2ccc(Cl)cc2Oc2ccc(-c3cnc(CN(C)C)n3C)cc2)C(=O)C[C@@H](Cc2ccccc2)C(=O)N(C)[C@H]2CCCC[C@@H]2NC(=O)C[C@H](Cc2ccc(Cl)cc2)N(C)C1=O,,,"ring closure, isolated yield ([1]; from (R)-3-Benzyl-4-(((1S,2S)-2-((8S,11S,14S)-8-((4-chloro-2-(4-(2-((dimethylamino)methyl)-1-methyl-1H-imidazol-5-yl)phenoxy)benzyl)amino)-14-(4-chlorobenzyl)-11-(methoxymethyl)-2,2,13-trimethyl-4,9,12-trioxo-3-oxa-5,10,13-triazahexadecan-16-amido)cyclohexyl)(methyl)amino)-4-oxobutanoic acid, 0.845 mM, 45.0 °C): 59.6%"
COC[C@@H]1NC(=O)[C@H](C)N(Cc2ccc(Cl)cc2Oc2ccc(-c3cnc(CN(C)C)n3C)cc2)C(=O)C[C@@H](Cc2ccccc2)C(=O)N(C)C2CCOCC2NC(=O)C[C@H](Cc2ccc(Cl)cc2)N(C)C1=O (stereo partly shown),,,"ring closure, isolated yield ([1]; from (3R)-3-benzyl-4-((3-((S)-3-((S)-2-((S)-2-((4-chloro-2-(4-(2-((dimethylamino)methyl)-1-methyl-1H-imidazol-5-yl)phenoxy)benzyl)amino)propanamido)-3-methoxy-N-methylpropanamido)-4-(4-chloro phenyl)butanamido)tetrahydro-2H-pyran-4-yl)(methyl)amino)-4-oxobutanoic acid, 45.0 °C): 17%"
"COC[C@@H]1NC(=O)[C@H](C)N(Cc2ccc(Cl)cc2Oc2ccc(-c3cncc(CN4CCCC4)c3C)cc2)C(=O)C[C@@H](Cc2ccccc2)C(=O)N(C)[C@@H](C)CNC(=O)C[C@H](Cc2ccc(Cl)cc2)N(C)C1=O [Compound 301, (2S,5S,8S,13S,16R)-16-benzyl-1-(4-chloro-2-(4-(4-methyl-5-(pyrrolidin-1-ylmethyl)pyridin-3-yl)phenoxy)benzyl)-8-(4-chlorobenzyl)-5-(methoxymethyl)-2,7,13,14-tetramethyl-1,4,7,11,14-pentaazacyclooctadecane-3,6,10,15,18-pentaone]",54.20,3.9,
"COC[C@@H]1NC(=O)C(C)N(Cc2ccc(Cl)cc2Oc2ccc(-c3cnc(CN(C)C)n3C)cc2)C(=O)C[C@@H](C)C(=O)N(C)[C@@H](CC(C)C)CNC(=O)C[C@H](Cc2ccc(Cl)cc2)N(C)C1=O (stereo partly drawn) [Compound 184, (5S,8S,13S,16R)-1-(4-chloro-2-(4-(2-((dimethylamino)methyl)-1-methyl-1H-imidazol-5-yl)phenoxy)benzyl)-8-(4-chlorobenzyl)-13-isobutyl-5-(methoxymethyl)-2,7,14,16-tetramethyl-1,4,7,11,14-pentaazacyclooctadecane-3,6,10,15,18-pentaone]",54.06,9.4,
"C=CC[C@@H]1CC(=O)N(Cc2ccc(C)cc2Oc2ccc(-c3cnc(CN(C)C)n3C)cc2)[C@@H](C)C(=O)N[C@@H](COC)C(=O)N(C)[C@@H](Cc2ccc(Cl)cc2)CC(=O)N[C@@H](C)[C@H](C)N(C)C1=O [Compound 107, (2S,5S,8S,12S,13S,16R)-16-allyl-8-(4-chlorobenzyl)-1-(2-(4-(2-((dimethylamino)methyl)-1-methyl-1H-imidazol-5-yl)phenoxy)-4-methylbenzyl)-5-(methoxymethyl)-2,7,12,13,14-pentamethyl-1,4,7,11,14-pentaazacyclooctadecane-3,6,10,15,18-pentaone]",100.41,1.7,

# Further lines, with some results ahead:
Max % inhibition [2] [%],IC50 [2] [nM],Compound,further results
96.86,11.5,"C[C@H]1CNC(=O)C[C@H](Cc2ccc(Cl)cc2)N(C)C(=O)[C@H](CC(=O)OC(C)(C)C)NC(=O)[C@H](C)N(Cc2ccc(Cl)cc2Oc2ccc(-c3cnc(CN(C)C)n3C)cc2)C(=O)C[C@@H](Cc2ccccc2)C(=O)N1C [Compound 185, tert-butyl 2-((2S,5S,8S,13S,16R)-16-benzyl-1-(4-chloro-2-(4-(2-((dimethylamino)methyl)-1-methyl-1H-imidazol-5-yl)phenoxy)benzyl)-8-(4-chlorobenzyl)-2,7,13,14-tetramethyl-3,6,10,15,18-pentaoxo-1,4,7,11,14-pentaazacyclooctadecan-5-yl)acetate]","ring closure, isolated yield ([1]; from (3S,6S,9S,14S,17R)-17-benzyl-6-(2-(tert-butoxy)-2-oxoethyl)-1-(4-chloro-2-(4-(2-((dimethyl amino)methyl)-1-methyl-1H-imidazol-5-yl)phenoxy)phenyl)-9-(4-chlorobenzyl)-3,8,14,15-tetramethyl-4,7,11,16-tetraoxo-2,5,8,12,15-pentaazanonadecan-19-oic acid, 1.85 mM, 45.0 °C): 46%"
104.11,2.4,"CCc1ccc(CN2C(=O)C[C@@H](Cc3ccccc3)C(=O)N(C)[C@@H](C)CNC(=O)C[C@H](Cc3ccc(Cl)cc3)N(C)C(=O)[C@H](COC)NC(=O)[C@@H]2CCF)c(Oc2ccc(-c3cnc(CN4CCCC4)n3C)cc2)c1 [Compound 26, (2S,5S,8S,13S,16R)-16-benzyl-8-(4-chlorobenzyl)-1-(4-ethyl-2-(4-(1-methyl-2-(pyrrolidin-1-ylmethyl)-1H-imidazol-5-yl)phenoxy)benzyl)-2-(2-fluoroethyl)-5-(methoxymethyl)-7,13,14-trimethyl-1,4,7,11,14-pentaazacyclooctadecane-3,6,10,15,18-pentaone]","ring closure, isolated yield ([1]; from (3S,6S,9S,14S,17R)-17-benzyl-9-(4-chlorobenzyl)-1-(4-ethyl-2-(4-(1-methyl-2-(pyrrolidin-1-ylmethyl)-1H-imidazol-5-yl)phenoxy)phenyl)-3-(2-fluoroethyl)-6-(methoxymethyl)-8,14,15-trimethyl-4,7,11,16-tetraoxo-2,5,8,12,15-pentaazanonadecan-19-oic acid, 0.238 mM, 39.0 °C): 47%"
96.70,6.3,"COC[C@@H]1NC(=O)[C@H](CCC(=O)N2CCOCC2)N(Cc2ccc(Cl)cc2Oc2ccc(-c3cnc(CN(C)C)n3C)cc2)C(=O)C[C@@H](Cc2ccccc2)C(=O)N(C)[C@H]2CCCC[C@@H]2NC(=O)C[C@H](Cc2ccc(Cl)cc2)N(C)C1=O [Compound 93, (4S,7S,10S,14R,16aS,20aS)-14-benzyl-11-(4-chloro-2-(4-(2-((dimethylamino)methyl)-1-methyl-1H-imidazol-5-yl)phenoxy)benzyl)-4-(4-chlorobenzyl)-7-(methoxymethyl)-5,16-dimethyl-10-(3-morpholino-3-oxopropyl)hexadecahydrobenzo[l][1,4,7,11,14]pentaazacyclooctadecine-2,6,9,12,15(3H)-pentaone]",
102.49,1.3,"C[C@H]1CNC(=O)C[C@H](Cc2ccc(Cl)cc2)N(C)C(=O)[C@H](COC(F)F)NC(=O)[C@H](C)N(Cc2ccc(Cl)cc2Oc2ccc(-c3cnc(CN(C)C)n3C)cc2)C(=O)C[C@@H](Cc2ccccc2)C(=O)N1C [Compound 170, (2S,5S,8S,13S,16R)-16-benzyl-1-(4-chloro-2-(4-(2-((dimethylamino)methyl)-1-methyl-1H-imidazol-5-yl)phenoxy)benzyl)-8-(4-chlorobenzyl)-5-((difluoromethoxy)methyl)-2,7,13,14-tetramethyl-1,4,7,11,14-pentaazacyclooctadecane-3,6,10,15,18-pentaone]",
98.33,1.2,"COC[C@@H]1NC(=O)[C@H](CC(=O)N2CCOCC2)N(Cc2ccc(Cl)cc2Oc2ccc(-c3cnc(CN(C)C)n3C)cc2)C(=O)C[C@@H](Cc2ccccc2)C(=O)N(C)[C@H]2CCCC[C@@H]2NC(=O)C[C@H](Cc2ccc(Cl)cc2)N(C)C1=O [Compound 20, (4S,7S,10S,14R,16aS,20aS)-14-benzyl-11-(4-chloro-2-(4-(2-((dimethylamino)methyl)-1-methyl-1H-imidazol-5-yl)phenoxy)benzyl)-4-(4-chlorobenzyl)-7-(methoxymethyl)-5,16-dimethyl-10-(2-morpholino-2-oxoethyl)hexadecahydrobenzo[l][1,4,7,11,14]pentaazacyclooctadecine-2,6,9,12,15(3H)-pentaone]",
99.12,1.7,"[2H]C([2H])([2H])N(Cc1ncc(-c2ccc(Oc3cc(Cl)ccc3CN3C(=O)C[C@@H](Cc4ccccc4)C(=O)N(C)[C@@H](C)CNC(=O)C[C@H](Cc4ccc(Cl)cc4)N(C)C(=O)[C@H](COC)NC(=O)[C@@H]3CC)cc2)n1C)C([2H])([2H])[2H] [Compound 49, (2S,5S,8S,13S,16R)-16-benzyl-1-(2-(4-(2-((bis(methyl-d3)amino)methyl)-1-methyl-1H-imidazol-5-yl)phenoxy)-4-chlorobenzyl)-8-(4-chlorobenzyl)-2-ethyl-5-(methoxymethyl)-7,13,14-trimethyl-1,4,7,11,14-pentaazacyclooctadecane-3,6,10,15,18-pentaone]",
